From patent publication EP0724879A2, “2-Phenyl-3-azoylbenzothiopenes for inhibiting effects of IL-6” (ELI LILLY AND COMPANY, priority 1995, dated 1996) come the findings set out here.

The subject of test [1] is IL-2 stimulated proliferation (CTLL.6 cytolytic T cell). Nature of the test: Assay 3: cytokine dependent cell proliferation, IL-2. The test is classed as cell-based. The following applies: Mus musculus, 50% inhibition of IL-2 dependent cell proliferation, 0.01 to 1 µM tested. On the procedure:
(§1) The following mouse cell lines were used for cytokine bioassays: CTLL.6 cytolytic T cell - IL-2, IL-4; 11.6 helper T cell - IL-4; T1165.17 plasmacytoma - IL-1, IL-6; B9 hybridoma - IL-6, LIF (leukemia inhibitory factor). Approximately 5,000 cells are seeded per duplicate well in 96-well flat-bottom microtiter plates in standard tissue culture medium (i.e. Iscove's Modified Dulbecco's Medium or Dulbecco's Modified Eagle's Medium supplemented with 25 mM Hepes, 2 mM L-glutamine, 50 µM 2-mercaptoethanol, 50 units/ml penicillin, 50 µg/ml streptomycin sulfate, and fetal bovine serum) containing vehicle (DMSO), raloxifene (0.01 to 1 µM) or 17-b-estradiol (0.01 to 1 µM) in the absence or presence of the indicated recombinant cytokine. Microtiter plates are incubated at 37°C in a humidified 10% CO2 incubator for 24 to 72 hours. At the end of that time, either 1 µCi 3H-thymidine or 100 µg of MTT (3-[4,5-dimethylthiazol-2-yl]-2,5-diphenyltetrazolium bromide) is added per well followed by an additional 4 to 6 hours of incubation. Microcultures pulsed using tritiated thymidine are harvested onto filter pads and counted by liquid scintillation. […] Optical density readings are taken at 570 nm with a reference wavelength of 690 nm to quantitate cell proliferation. […]

The subject of test [2] is IL-6 stimulated cell proliferation (T1165.17 plasmacytoma; B9 hybridoma). Nature of the test: Assay 3: cytokine dependent cell proliferation, IL-6. The test is classed as cell-based. Conditions: Mus musculus; 50% inhibition of IL-6 dependent cell proliferation; 0.01 to 1 µM tested. On the procedure:
as §1

The test system of test [3] is LIF stimulated cell proliferation (B9 hybridoma). Nature of the test: Assay 3: cytokine dependent cell proliferation, LIF. The following applies: Mus musculus; 50% inhibition of LIF dependent cell proliferation; 0.01 to 1 µM tested. The test is classed as cell-based. On the procedure:
as §1

The test system of test [4] is OVX-induced osteopenia. Nature of the test: Assay 1: bone mass / BMD protection in OVX rats. The test is classed as in vivo, SD rats. The following applies: for BMD % (protection) / OVX-induced osteopenia: OVX rats, 35 day treatment; for OVX-induced osteopenia / bone density: result in words; for bone density: OVX/hypophysectomized (HYPOX) rats. The procedure: (§2) Six month old, virgin SD rats are OVX or OVX/hypophysectomized (HYPOX) and treated with vehicle (20% cyclodextrin, PO), raloxifene (0.1 to 10 mg/kg/day, PO) or ethynyl estradiol EE2; 0.001 to 0.1 mg/kg/day, PO). A sham, vehicle treated control is also included. Serum and/or long bones are collected after a 35 day or shorter treatment period. Serum cytokine determinations are performed by bioassay.
(§3) No consistent changes in other serum cytokines is detected.

Test [5] concerns IL-4 stimulated proliferation (CTLL.6 cytolytic T cell; 11.6 helper T cell). In words: Assay 3: cytokine dependent cell proliferation, IL-4. The test is classed as cell-based. The following applies: Mus musculus, 50% inhibition of IL-4 dependent cell proliferation, 0.01 to 1 µM tested. The procedure: as §1
Test [6] deals with IL-6. Nature of the test: Assay 1: serum IL-6 in OVX rats (bioassay). The test is classed as in vivo, SD rats. On the procedure:
as §2, §3

The test system of test [7] is IL-6. In words: Assay 2: IL-1-induced serum IL-6 in mice (ELISA). The following applies: male BALB/c mice, 1 mg/kg PO for 3 days, then IL-1b 3 ug SC, 2 hours. The test is classed as in vivo. On the procedure: Ten week old male BALB/c mice are treated with vehicle (20% cyclodextrin, PO) or raloxifene (1 mg/kg, PO) for 3 days. On day 4, mice are treated with vehicle (saline, IP), LA-15.1 anti-IL-1 receptor monoclonal antibody (mAb) (250 ug, IP) or human recombinant IL-1b (3 ug, SC). After 2 hours, serum was collected by orbital sinus puncture and IL-6 levels quantitated by ELISA.
Injection of IL-1 into cyclodextrin treated mice induces a significant increase in serum IL-6 (193 ± 29 ng/ml) versus saline injected cyclodextrin treated mice (<1 ng/ml) (Table 2). […] The anti-IL-1 receptor mAb LA-15.1 completely attenuates the IL-1-induced rise in serum IL-6 levels.
In general terms: An ELISA detects its analyte on a solid surface through an enzyme-linked reagent.

Setting [8] is: OVX rats, 100 µg/kg, 35 day treatment.
Where [9] appears, read: OVX rats, 35 day treatment, PO, result in words.
The mark [10] stands for this setting: animals treated for as few as four days post-OVX, result in words.

As usually defined, the IC50 is the concentration at which inhibition is half-maximal. Take `C[C@]12CC[C@@H]3c4ccc(O)cc4CC[C@H]3[C@@H]1CC[C@@H]2O` [17-β-E2, 17-b-estradiol]: the IC50 in test [1], in test [2], in test [3] and in test [5] was over 1000 nM in each case. Also, the “BMD % (protection)” value in test [4] (100 µg/kg) is given as 106.4 ± 11.8%. In addition, in test [6] (setting [8]), the “Serum IL-6” value was determined as 0.07 ± 0.10 ng/mL.
As to `C#C[C@]1(O)CC[C@H]2[C@@H]3CCc4cc(O)ccc4[C@H]3CC[C@@]21C` [Ethy, ethynyl estradiol], the “BMD % (protection)” value is 5.28 ± 11.83% in test [4] (1 µg/kg), 57.25 ± 16.07% in test [4] (10 µg/kg) and 76.00 ± 18.3% in test [4] (100 µg/kg). Moreover, the OVX-induced osteopenia entry in test [4] (PO) is recorded as “significantly attenuate”. Moreover, the bone density entry in test [4] is recorded as “did not respond”. Also, the “Serum IL-6” value was 3.42 ± 2.23 ng/mL in test [6] (OVX rats, 1 µg/kg, 35 day treatment); 1.84 ± 0.60 ng/mL in test [6] (OVX rats, 10 µg/kg, 35 day treatment); 0.20 ± 0.10 ng/mL in test [6] (setting [8]); “significant reduction” in test [6] (setting [10]). Further, the “rise in serum IL-6 levels” value in test [6] (setting [9]) was “significantly attenuate”.
As to `O=C(c1ccc(OCCN2CCCCC2)cc1)c1c(-c2ccc(O)cc2)sc2cc(O)ccc12` [Raloxifene], the IC50 in test [1] is over 1000 nM; in test [2], 719 nM; in test [3], 603 nM; in test [5], over 1000 nM. Besides, the IL-6 was determined as 90 ± 21 ng/mL in test [7] (1 mg/kg) and 90 ± 2.1 ng/mL in test [7] (listed as 139478, 1 mg/kg). Moreover, the “BMD % (protection)” value in test [4] (0.1 mg.kg, PO) came out at 63.88 ± 19.8%; in test [4] (1 mg/kg, PO) it was 82.50 ± 17.17%; in test [4] (10 mg/kg, PO) it was 82.09 ± 7.02%. Further, the OVX-induced osteopenia entry in test [4] (PO) was “significantly attenuate”. The bone density result in test [4] was “did not respond”. The “Serum IL-6” value in test [6] (OVX rats, 0.1 mg.kg, PO, 35 day treatment) is 4.32 ± 1.65 ng/mL; in test [6] (OVX rats, 1 mg/kg, PO, 35 day treatment), 1.55 ± 0.48 ng/mL; in test [6] (OVX rats, 10 mg/kg, PO, 35 day treatment), 1.23 ± 0.45 ng/mL; in test [6] (setting [10]) it was “significant reduction”. In test [6] (setting [9]), the “rise in serum IL-6 levels” value was “significantly attenuate”.
